Results as given in patent US8822451B2, “Modulators of ATP-binding cassette transporters” (Vertex Pharmaceuticals Incorporated, priority 2005, dated 2014).

Biological target: T1, […]F508-CFTR (Homo sapiens, UniProt P13569, DEL508-508)
T1 construct: expressed in transfected cells
Test: Assay results of Table 3: ΔF508-CFTR modulation, membrane potential optical assay (assay format not stated)
Assay type: cell-based
Details: NIH3T3 mouse fibroblasts stably expressing […]F508-CFTR (optical assays); for Efficacy: efficacy range; for EC50: potency range
Source text: A. Membrane Potential Optical Methods for Assaying […]F508-CFTR Modulation Properties of Compounds
The optical membrane potential assay utilized voltage-sensitive FRET sensors described by Gonzalez and Tsien (See, Gonzalez, J. E. and R. Y. Tsien (1995) “Voltage sensing by fluorescence resonance energy transfer in single cells” Biophys J 69(4): 1272-80, and Gonzalez, J. E. and R. Y. Tsien (1997) “Improved indicators of cell membrane potential that use fluorescence resonance energy transfer” Chem Biol 4(4): 269-77) in combination with instrumentation for measuring fluorescence changes such as the Voltage/Ion Probe Reader (VIPR) (See, Gonzalez, J. E., K. Oades, et al. (1999) “Cell-based assays and instrumentation for screening ion-channel targets” Drug Discov Today 4(9): 431-439).
These voltage sensitive assays are based on the change in fluorescence resonant energy transfer (FRET) between the membrane-soluble, voltage-sensitive dye, DiSBAC2(3), and a fluorescent phospholipid, CC2-DMPE, which is attached to the outer leaflet of the plasma membrane and acts as a FRET donor. Changes in membrane potential (Vm) cause the negatively charged DiSBAC2(3) to redistribute across the plasma membrane and the amount of energy transfer from CC2-DMPE changes accordingly. The changes in fluorescence emission were monitored using VIPR™ II, which is an integrated liquid handler and fluorescent detector designed to conduct cell-based screens in 96- or 384-well microtiter plates.
To identify small molecules that correct the trafficking defect associated with ΔF508-CFTR; a single-addition HTS assay format was developed. The cells were incubated in serum-free medium for 16 hrs at 37° C. in the presence or absence (negative control) of test compound. As a positive control, cells plated in 384-well plates were incubated for 16 hrs at 27° C. to “temperature-correct” […]F508-CFTR. The cells were subsequently rinsed 3× with Krebs Ringers solution and loaded with the voltage-sensitive dyes. To activate […]F508-CFTR, 10 µM forskolin and the CFTR potentiator, genistein (20 µM), were added along with Cl^−-free medium to each well. The addition of Cl^−-free medium promoted Cl^− efflux in response to […]F508-CFTR activation and the resulting membrane depolarization was optically monitored using the FRET-based voltage-sensor dyes.
To identify potentiators of […]F508-CFTR, a double-addition HTS assay format was developed. During the first addition, a Cl^−-free medium with or without test compound was added to each well. After 22 sec, a second addition of Cl^−-free medium containing 2-10 µM forskolin was added to activate […]F508-CFTR. The extracellular Cl^− concentration following both additions was 28 mM, which promoted Cl^− efflux in response to […]F508-CFTR activation and the resulting membrane depolarization was optically monitored using the FRET-based voltage-sensor dyes.
Bath Solution #1: (in mM) NaCl 160, KCl 4.5, CaCl2 2, MgCl2 1, HEPES 10, pH 7.4 with NaOH.
Chloride-free bath solution: Chloride salts in Bath Solution #1 are substituted with gluconate salts.
CC2-DMPE: Prepared as a 10 mM stock solution in DMSO and stored at −20° C.
DiSBAC2(3): Prepared as a 10 mM stock in DMSO and stored at −20° C.
NIH3T3 mouse fibroblasts stably expressing […]F508-CFTR are used for optical measurements of membrane potential. The cells are maintained at 37° C. in 5% CO2 and 90% humidity in Dulbecco's modified Eagle's medium supplemented with 2 mM glutamine, 10% fetal bovine serum, 1× NEAA, […]-ME, 1× pen/strep, and 25 mM HEPES in 175 cm^2 culture flasks. For all optical assays, the cells were seeded at 30,000/well in 384-well matrigel-coated plates and cultured for 2 hrs at 37° C. before culturing at 27° C. for 24 hrs for the potentiator assay. For the correction assays, the cells are cultured at 27° C. or 37° C. with and without compounds for 16-24 hoursB.

T1 sequence (P13569 with tags, fused parts or gaps DEL508-508): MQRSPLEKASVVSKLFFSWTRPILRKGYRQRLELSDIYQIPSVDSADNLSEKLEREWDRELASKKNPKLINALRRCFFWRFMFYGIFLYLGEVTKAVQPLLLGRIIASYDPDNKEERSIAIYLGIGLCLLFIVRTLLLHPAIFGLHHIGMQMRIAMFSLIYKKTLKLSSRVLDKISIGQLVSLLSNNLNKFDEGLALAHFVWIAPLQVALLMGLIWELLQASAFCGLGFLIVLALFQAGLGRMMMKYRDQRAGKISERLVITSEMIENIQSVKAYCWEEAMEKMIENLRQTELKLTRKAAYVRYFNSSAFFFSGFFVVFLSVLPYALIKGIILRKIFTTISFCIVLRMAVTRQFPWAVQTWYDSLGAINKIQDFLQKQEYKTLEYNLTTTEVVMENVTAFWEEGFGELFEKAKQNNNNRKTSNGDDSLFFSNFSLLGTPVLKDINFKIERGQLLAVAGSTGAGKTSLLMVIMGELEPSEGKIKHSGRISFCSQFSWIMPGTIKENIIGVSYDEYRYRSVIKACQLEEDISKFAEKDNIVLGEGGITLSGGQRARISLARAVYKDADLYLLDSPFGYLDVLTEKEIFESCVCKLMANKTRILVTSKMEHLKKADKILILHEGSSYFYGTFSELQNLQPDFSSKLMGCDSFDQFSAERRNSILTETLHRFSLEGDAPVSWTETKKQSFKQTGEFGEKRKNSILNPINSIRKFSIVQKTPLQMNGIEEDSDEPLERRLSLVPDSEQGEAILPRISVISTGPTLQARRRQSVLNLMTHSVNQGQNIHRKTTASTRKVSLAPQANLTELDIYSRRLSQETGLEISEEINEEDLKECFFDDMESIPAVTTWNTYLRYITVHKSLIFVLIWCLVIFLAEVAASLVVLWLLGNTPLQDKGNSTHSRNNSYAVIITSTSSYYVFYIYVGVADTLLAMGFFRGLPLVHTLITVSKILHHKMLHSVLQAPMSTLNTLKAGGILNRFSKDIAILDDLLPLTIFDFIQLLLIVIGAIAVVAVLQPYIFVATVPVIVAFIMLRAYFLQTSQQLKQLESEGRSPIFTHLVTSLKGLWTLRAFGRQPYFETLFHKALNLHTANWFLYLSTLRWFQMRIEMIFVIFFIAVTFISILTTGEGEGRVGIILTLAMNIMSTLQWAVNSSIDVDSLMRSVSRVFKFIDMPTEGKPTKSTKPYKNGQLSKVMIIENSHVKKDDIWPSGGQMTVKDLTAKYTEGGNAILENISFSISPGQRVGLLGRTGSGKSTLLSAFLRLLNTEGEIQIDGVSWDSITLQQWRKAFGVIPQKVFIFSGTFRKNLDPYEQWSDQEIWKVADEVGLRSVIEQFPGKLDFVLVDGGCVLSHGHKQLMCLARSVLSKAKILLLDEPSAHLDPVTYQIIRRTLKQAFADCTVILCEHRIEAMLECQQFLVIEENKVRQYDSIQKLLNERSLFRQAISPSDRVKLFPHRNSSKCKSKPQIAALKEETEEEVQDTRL

Structure (SMILES)	Efficacy	EC50
CCN(CC)c1nc(C(N)=O)cc(-c2ccccc2)n1 [Compound 119]	+++ (+++ corresponds to Efficacy greater than 100)	< 1 µM
COc1cccc(-c2cc(C(N)=O)nc(NCc3ccco3)n2)c1 [Compound 173]	++ (++ corresponds to Efficacy between 100 and 50)	> 5 µM
CCN(CC)c1nc(C(N)=O)cc(-c2cccc(C(=O)OC)c2)n1 [Compound 35]	+++ (+++ corresponds to Efficacy greater than 100)	< 1 µM
CCCN(CC1CC1)c1nc(C(=O)N(C)C)cc(-c2ccccc2)n1 [Compound 150]	++ (++ corresponds to Efficacy between 100 and 50)	1 to 5 µM
CCN(CC)c1nc(C(N)=O)cc(-c2cc(F)cc(F)c2)n1 [Compound 151]	+++ (+++ corresponds to Efficacy greater than 100)	1 to 5 µM
Cc1ccc(-c2cc(C(N)=O)nc(N3CCCCC3)n2)cc1 [Compound 221]	+ (+ corresponds to Efficacy less than 50)	1 to 5 µM
NC(=O)c1cc(-c2ccccc2)nc(NC2CCCC2)n1 [Compound 112]	+ (+ corresponds to Efficacy less than 50)	> 5 µM
CC(C)CCN(C)c1nc(C(N)=O)cc(-c2ccccc2)n1 [Compound 206]	++ (++ corresponds to Efficacy between 100 and 50)	1 to 5 µM
CCOc1ccc(-c2cc(C(N)=O)nc(N3CCCCC3)n2)cc1 [Compound 198]	+ (+ corresponds to Efficacy less than 50)	1 to 5 µM
CCCCN(CCO)c1nc(C(N)=O)cc(-c2ccccc2)n1 [Compound 19]	++ (++ corresponds to Efficacy between 100 and 50)	1 to 5 µM
CCN(CC)c1nc(C(=O)N2CCCCC2)cc(-c2ccccc2)n1 [Compound 157]	+ (+ corresponds to Efficacy less than 50)	> 5 µM
CCN(CC)c1nc(C(N)=O)cc(-c2cc(C(C)C)ccc2OC)n1 [Compound 76]	+++ (+++ corresponds to Efficacy greater than 100)	< 1 µM
COc1ccc(OC)c(-c2cc(C(N)=O)nc(N3CCCCC3)n2)c1 [Compound 8]	++ (++ corresponds to Efficacy between 100 and 50)	1 to 5 µM
COc1ccc(-c2cc(C(N)=O)nc(N3CCCCC3)n2)cc1 [Compound 142]	++ (++ corresponds to Efficacy between 100 and 50)	> 5 µM
Cc1cccc(-c2cc(C(N)=O)nc(N3CCCCC3)n2)c1 [Compound 32]	++ (++ corresponds to Efficacy between 100 and 50)	> 5 µM
CCN(CC)c1nc(C(=O)NC)cc(-c2ccccc2)n1 [Compound 47]	+++ (+++ corresponds to Efficacy greater than 100)	1 to 5 µM
CCN(CC)C(=O)c1cc(-c2ccccc2)nc(N(CC)CC)n1 [Compound 141]	++ (++ corresponds to Efficacy between 100 and 50)	1 to 5 µM
NC(=O)c1cc(-c2ccccc2OC(F)(F)F)nc(N2CCCCC2)n1 [Compound 152]	++ (++ corresponds to Efficacy between 100 and 50)	1 to 5 µM
CCCN(CC)c1nc(C(N)=O)cc(-c2ccccc2)n1 [Compound 34]	+++ (+++ corresponds to Efficacy greater than 100)	1 to 5 µM
CCN(CC)c1nc(C(N)=O)cc(-c2c(OC)cccc2OC)n1 [Compound 108]	++ (++ corresponds to Efficacy between 100 and 50)	> 5 µM
CCN(CC)c1nc(C(N)=O)cc(-c2cccc(OC(F)(F)F)c2)n1 [Compound 84]	++ (++ corresponds to Efficacy between 100 and 50)	< 1 µM
NC(=O)c1cc(-c2ccccc2)nc(N2CCC3CCCCC3C2)n1 (centres unmarked) [Compound 148]	++ (++ corresponds to Efficacy between 100 and 50)	1 to 5 µM

Structure (SMILES)	Efficacy	EC50
CC(C)CCN(CCC(C)C)c1nc(C(N)=O)cc(-c2ccccc2)n1 [Compound 104]	+ (+ corresponds to Efficacy less than 50)	1 to 5 µM
CC(C)c1ccc(-c2cc(C(N)=O)nc(N3CCCCC3)n2)cc1 [Compound 166]	+ (+ corresponds to Efficacy less than 50)	> 5 µM
CN(C)c1nc(C(N)=O)cc(-c2ccccc2)n1 [Compound 9]	++ (++ corresponds to Efficacy between 100 and 50)	> 5 µM
NC(=O)c1cc(-c2ccccc2)nc(CC2CCCCC2)n1 [Compound 136]	++ (++ corresponds to Efficacy between 100 and 50)	> 5 µM
CCOC(=O)C1CCCN(c2nc(C(N)=O)cc(-c3ccccc3)n2)C1 (centres unmarked) [Compound 59]	+ (+ corresponds to Efficacy less than 50)	1 to 5 µM
CCN(C)c1nc(C(N)=O)cc(-c2ccccc2)n1 [Compound 7]	+++ (+++ corresponds to Efficacy greater than 100)	1 to 5 µM
COc1ccc(-c2cc(C(N)=O)nc(N3CCCCC3)n2)cn1 [Compound 22]	++ (++ corresponds to Efficacy between 100 and 50)	> 5 µM
CCCN(CCO)c1nc(C(N)=O)cc(-c2ccccc2)n1 [Compound 100]	++ (++ corresponds to Efficacy between 100 and 50)	1 to 5 µM
CCN(CC)c1nc(C(N)=O)cc(-c2ccc(C(F)(F)F)cc2)n1 [Compound 10]	++ (++ corresponds to Efficacy between 100 and 50)	> 5 µM
NC(=O)c1cc(-c2cccc(OC(F)(F)F)c2)nc(N2CCCCC2)n1 [Compound 213]	+ (+ corresponds to Efficacy less than 50)	1 to 5 µM
COc1ccccc1-c1cc(C(N)=O)nc(N2CCCCC2)n1 [Compound 205]	++ (++ corresponds to Efficacy between 100 and 50)	> 5 µM
CCN(CC)c1nc(C(N)=O)cc(-c2ccccc2F)n1 [Compound 94]	+++ (+++ corresponds to Efficacy greater than 100)	1 to 5 µM
CN(CCc1c[nH]c2ccccc12)c1nc(C(N)=O)cc(-c2ccccc2)n1 [Compound 63]	++ (++ corresponds to Efficacy between 100 and 50)	1 to 5 µM
NC(=O)c1cc(-c2csc3ccccc23)nc(N2CCCCC2)n1 [Compound 144]	++ (++ corresponds to Efficacy between 100 and 50)	> 5 µM
CCN(CC)c1nc(C(N)=O)cc(-c2ccc(CC(C)C)cc2)n1 [Compound 184]	++ (++ corresponds to Efficacy between 100 and 50)	< 1 µM
CNC(=O)c1cc(-c2ccccc2)nc(N2CCCCC2)n1 [Compound 232]	+ (+ corresponds to Efficacy less than 50)	1 to 5 µM
C#CCN(C)c1nc(C(N)=O)cc(-c2ccccc2)n1 [Compound 204]	++ (++ corresponds to Efficacy between 100 and 50)	1 to 5 µM
CNC(=O)c1cc(-c2ccccc2)nc(NC)n1 [Compound 103]	+ (+ corresponds to Efficacy less than 50)	< 1 µM
COc1ccc(Cl)cc1-c1cc(C(N)=O)nc(N2CCCCC2)n1 [Compound 115]	++ (++ corresponds to Efficacy between 100 and 50)	1 to 5 µM
NC(=O)c1cc(-c2ccccc2)nc(N2CC=C(c3ccc(Cl)cc3)CC2)n1 [Compound 3]	++ (++ corresponds to Efficacy between 100 and 50)	> 5 µM
CCOc1ccccc1-c1cc(C(N)=O)nc(N2CCCCC2)n1 [Compound 127]	++ (++ corresponds to Efficacy between 100 and 50)	1 to 5 µM
